Data: patent publication US3974137A, “Process for the preparation of 1-[L-(-)-γ-amino-α-hydroxybutyryl]-kanamycin A (RD-1341A)” (priority 1974, dated 1976)
In brackets after ≈: the same amount, converted by molar mass. Several values for one entry are separate records, joined by “and”; a condition that tells them apart may be missing. Identical values can stand only once. Counter-ions that a name gives are not always drawn. Like-named read-outs stand apart in the source and are kept apart here.

Experiments:
Escherichia coli A-15119 [1] = assay: MIC, in vitro (Table 3); format: cell-based; details: A15119, Mueller-Hinten agar, test number 1
From the text: (§1) ^a MIC =minimum inhibitory concentration (μg./ml.). Tests conducte
(§2) as described by Chisholm et al., (Antimicrob. Agents and
(§3) Chemotherapy-1969, p. 244, 1970) using Mueller-Hinten agar as the test

Escherichia coli A-20520 [2] = assay: MIC, in vitro (Table 3); format: cell-based
From the text: as §1, §2, §3

[3] = tested on: Staphylococcus aureus A-9537; assay: MIC, in vitro (Table 3); format: cell-based
From the text: as §1, §2, §3

[4] = tested on: Staphylococcus aureus A-9537; assay: CD50 in lethally infected mice; format: in vivo, Staphylococcus aureus (infected mice); details: for ED50: Staphylococcus aureus, A9537, sc, mice, subcutaneous, × 2 treatments (1 and 4 hours post-infection), test number 1, read-out: CD50 (curative dose, 50%); for effectiveness in infected mice (words): kanamycin A-sensitive strain
Method: (§4) ^b CD50 =curative dose, 50% (mg./kg./treated × number of
(§5) treatments). Mice were treated subcutaneously at 1 and 4 hours
(§6) post-infection when 2 treatment were administered and at 0, 2, 4 and 6
(§7) hours post-infection when 4 treatment weree given. Other aspects of the
(§8) test were carried out as described by Price et al. (J. of Antibiotics

Escherichia coli A-15119 [5] = assay: CD50 in lethally infected mice; format: in vivo, Escherichia coli (infected mice); details: for ED50: Escherichia coli, A15119, sc, mice, subcutaneous, × 2 treatments (1 and 4 hours post-infection), test number 1, read-out: CD50 (curative dose, 50%); for effectiveness in infected mice (words): kanamycin A-sensitive strain
Method: as §4, §5, §6, §7, §8

Escherichia coli A-20520 [6] = assay: CD50 in lethally infected mice; format: in vivo, Escherichia coli (infected mice); details: for ED50: Escherichia coli, A20520, sc, read-out: CD50 (curative dose, 50%); for effectiveness in infected mice (words): kanamycin-resistant strain
Method: as §4, §5, §6, §7, §8

[7] = Bioassay of column fractions (plate assays); format: cell-based; details: pooled column fractions; BB-K8: average of 4 plate assays, ± standard deviation
From the text: *Average of 4 plate assays, ± standard deviation.

B. subtilis = assay: Relative potency, agar plate; format: cell-based; details: standard: kanamycin A free base
Method: Compound IV, as recovered from this process, is identical with authentic product obtained by the method described in co-pending application, Ser. No. 221,378. M.p. 194° (dec.) [α]D^21 +85° (c=2, H2 O). […] (standard: kanamycin A free base).

[8] = tested on: gram-positive and gram-negative bacteria; assay: Antibacterial activity (MIC), overall comparison with kanamycin A; format: cell-based; details: in words
From the text: Illustrated below are two tables showing the minimal inhibitory concentrations (MIC's) of kanamycin A and compound IVa (BB-K8) against a variety of gram-positive and gram-negative bacteria as obtained by the Steers agar-dilution method (Table I) and the two-fold dilution method (Table 2). Mueller-Hinton Agar Medium was used in the study of Table 1 and Heart Infusion Broth was used in the study of Table 2.

[9] = Hygroscopicity / water uptake on storage in air; format: physicochemical
[10] = mice, subcutaneous, × 4 treatments (0, 2, 4 and 6 hours post-infection), test number 2

NCC1OC(OC2C(N)CC(N)C(OC3OC(CO)C(O)C(N)C3O)C2O)C(O)C(O)C1O (centres unmarked) [Kanamycin A]
MIC (Escherichia coli A-15119 [1]): 4 µg/mL (≈ 8.26 µM)
MIC (Escherichia coli A-20520 [2]; A20520): 125 µg/mL (≈ 258 µM)
MIC ([3]; A9537): 2 µg/mL (≈ 4.13 µM)
ED50 [4]: 0.5 mg/kg
effectiveness in infected mice (words) [4]: equally effective
ED50 (Escherichia coli A-15119 [5]): 4 mg/kg
effectiveness in infected mice (words) (Escherichia coli A-15119 [5]): equally effective
ED50 (Escherichia coli A-20520 [6]): 200 mg/kg
effectiveness in infected mice (words) (Escherichia coli A-20520 [6]): not very effective in vivo
CD50 (curative dose, 50%) (Escherichia coli A-20520 [6]; [10]): 200 mg./kg./treated × number of tr
Bioassay [7]: 809

NCC[C@H](O)C(=O)N[C@@H]1C[C@H](N)[C@@H](O[C@H]2O[C@H](CN)[C@@H](O)[C@H](O)[C@H]2O)[C@H](O)[C@H]1O[C@H]1O[C@H](CO)[C@@H](O)[C@H](N)[C@H]1O [Compound IV, 1-[L-(-)-γ-amino-α-hydroxybutyryl]-kanamycin A]
MIC (Escherichia coli A-15119 [1]): 2 µg/mL (≈ 3.42 µM)
MIC (Escherichia coli A-20520 [2]; A20520, Mueller-Hinten agar, test number 1, read-out: MIC): 2 µg/mL (≈ 3.42 µM)
MIC ([3]; A9537, Mueller-Hinten agar, test number 1, read-out: MIC): 1 µg/mL (≈ 1.71 µM)
ED50 [4]: 2 mg/kg
effectiveness in infected mice (words) [4]: equally effective
effectiveness in infected mice (words) ([4]; listed as compound IV): slightly less active than kanamycin A
ED50 (Escherichia coli A-15119 [5]): 2 mg/kg
effectiveness in infected mice (words) (Escherichia coli A-15119 [5]): equally effective
ED50 (Escherichia coli A-20520 [6]; mice, subcutaneous, × 2 treatments (1 and 4 hours post-infection), test number 1): 66 mg/kg
ED50 (Escherichia coli A-20520 [6]; [10]): 5 mg/kg
effectiveness in infected mice (words) (Escherichia coli A-20520 [6]): marked protective action
times more active in 4-treatment regimen rather than in 2-treatment one (Escherichia coli A-20520 [6]; mice, 4-treatment vs 2-treatment regimen): approximately 10 times
Bioassay [7]: 786±101
Relative potency against B. subtilis (B. subtilis): 960 µg/mg
antibacterial activity compared with kanamycin A [8]: excellent antibacterial activity that appears superior to kanamycin A itself
antibacterial activity compared with kanamycin A ([8]; listed as compound IV): superior to kanamycin A in activity, particularly against kanamycin A resistant organisms

NCC[C@H](O)C(=O)N[C@@H]1C[C@H](N)[C@@H](O[C@H]2O[C@H](CN)[C@@H](O)[C@H](O)[C@H]2O)[C@H](O)[C@H]1O[C@H]1O[C@H](CO)[C@@H](O)[C@H](N)[C@H]1O [BB-K8^. 2H2 SO4, Disulfate Salt of 1-[L-(-)-γ-amino-α-hydroxybutyryl]-kanamycin A]
water content after storage in air ([9]; Karl Fisher, in air at room temperature for 18 hours): 9.55% and 9.89%
hygroscopicity ([9]; disulfate salt): hygroscopic but not deliquescent
